This is an account of results in US6642201B1, “Use of a dipeptide for stimulating repair processes” (priority 1998, dated 2003).

The subject of the assay is purulent incised crushed wounds of the femural soft tissues. The assay can be described thus: Healing of purulent incised crushed wounds of the soft tissues. The class given is in vivo, shinshilla rabbits. Also on record: key: 1 point - absent; 2 points - single (traces); 3 points - few; 4 points - diffuse (moderately); 5 points - many-;; 6 points - very many. The conditions noted are these: rabbits, 1 μkg i.m. daily 5 days. The source says: The efficacy of L-Lys-L-Glu dipeptide was estimated on the model of purulent incised crushed wounds of the femural soft tissues in shinshilla rabbits of both sexes with body weight 2-3 kg. Therefore, the rabbits underwent shaving in the area of femural soft tissues with subsequent incision 5 cm long and 2 sm deep. Soft tissues (muscles, subcutaneous fat) were crushed with Kocher 's forcepts and infected with the pathogenic mixture Staphylococcus aureus, strain 186. Afterwards, the wound was sutured. In 72 hours the sutures were lifted; and the wound was treated with 3% solution of hydrogen peroxide.
The animals of experimental group were injected intramuscularly every day for five days with dipeptide L-Lys-L-Glu in a single dose 1 μkg per injection. Control rabbits were injected with sodium chloride solution according to the same scheme. In the process of treatment the wounds were treated with antiseptic remedies for external use.
The estimation of L-Lys-L-Glu dipeptide efficacy in the dynamics of the inflammatory process regression was based on the terms of crust rejection and wound clearance from the pyo-necrotic mass, and appearance of the granular tissue in the wound and beginning of edge epithelization. […] The activity of tissue enzymes was also estimated (5,6,7).

Marks after values point to notes of the source that are not given here. Where a SMILES comes first, the peptide text is derived from it.

For `NCCCC[C@H](N)C(=O)N[C@@H](CCC(=O)O)C(=O)O` [L-Lys-L-Glu dipeptide, L-lysil-L-glutamic acid] (H-Lys-Glu-OH), the “Acid phosphotase in histiocytes” value (day 6) was 5*, the “Acid phosphotase in histiocytes” value (day 21) is 5, the “Acid phosphotase in histiocytes” value (day 28) is reported as 5* and the “Acid phosphotase in histiocytes” value (day 40) is 5*. Further, the “Alcaline phosphotase in vessels” value is listed as 5 (day 14) and 5* (day 21). For the same compound, the “Alcaline phosphotase in leukocytes” value reads like this: (day 21) 5; (day 40) 5.
